In ChEMBL document CHEMBL1140606, “Green tea catechins inhibit bacterial DNA gyrase by interaction with its ATP binding site” (J Med Chem, 2007):
≈ marks a conversion by molar mass, not a printed value. Calls of active or inactive are those of the source. The calls are words filed in the database; no cut-off is given here.

What was measured:
Escherichia coli [1] = assay: Inhibition of Escherichia coli DNA gyrase B ATPase activity
Escherichia coli [2] = assay: Displacement of picogreen from Escherichia coli DNA gyrase B
Escherichia coli [3] = assay: Inhibition of Escherichia coli DNA gyrase B supercoiling activity upto 100 uM
Escherichia coli [4] = assay: Antibacterial activity against Escherichia coli; type: functional
Escherichia coli [5] = assay: Displacement of ethidium bromide from Escherichia coli DNA gyrase B
Escherichia coli [6] = assay: (§1) Inhibition of Escherichia coli DNA gyrase B supercoiling activity
[7] = Displacement of fluorescent quercetin from Escherichia coli BL21 (DE3) recombinant DNA gyrase B G24
[8] = as §1

Structure (SMILES)	Activity (Escherichia coli [1])	Activity (Escherichia coli [2])	Activity (Escherichia coli [3])	MIC (Escherichia coli [4]) [µM]	Activity (Escherichia coli [5])	Activity (Escherichia coli [6])	Kd [7] [µM]	IC50 [8] [µM]
Oc1cc(O)c2c(c1)O[C@H](c1ccc(O)c(O)c1)[C@H](O)C2 [(-)-EPICATECHIN]	inactive	inactive	inactive	> 1000	inactive	inactive	54	
O=C(O[C@@H]1Cc2c(O)cc(O)cc2O[C@@H]1c1ccc(O)c(O)c1)c1cc(O)c(O)c(O)c1 [EPICATECHIN GALLATE]	Active	inactive		25 (≈ 11.1 µg/mL)	inactive		36	50
Oc1cc(O)c2c(c1)O[C@H](c1cc(O)c(O)c(O)c1)[C@H](O)C2 [EPIGALLOCATECHIN]	Active	inactive	inactive	100 (≈ 30.6 µg/mL)	inactive		34	
O=C(O[C@@H]1Cc2c(O)cc(O)cc2O[C@@H]1c1cc(O)c(O)c(O)c1)c1cc(O)c(O)c(O)c1 [EPIGALOCATECHIN GALLATE]	Active	inactive		10 (≈ 4.58 µg/mL)	inactive		23	50
O=c1c(O)c(-c2ccc(O)c(O)c2)oc2cc(O)cc(O)c12 [QUERCETIN]							15	
